Measured values reported in patent US20050119289A1 (priority 2002, published 2005).

Columns and labels:
[1] = biological target: rA2A adenosine receptor (Rattus norvegicus, UniProt P30543); assay: Binding affinity at rA2A adenosine receptors
[2] = biological target: T1, rA1 adenosine receptor (Rattus norvegicus, UniProt P25099); assay: Binding affinity at rA1 adenosine receptors
T1 sequence (P25099 1-326): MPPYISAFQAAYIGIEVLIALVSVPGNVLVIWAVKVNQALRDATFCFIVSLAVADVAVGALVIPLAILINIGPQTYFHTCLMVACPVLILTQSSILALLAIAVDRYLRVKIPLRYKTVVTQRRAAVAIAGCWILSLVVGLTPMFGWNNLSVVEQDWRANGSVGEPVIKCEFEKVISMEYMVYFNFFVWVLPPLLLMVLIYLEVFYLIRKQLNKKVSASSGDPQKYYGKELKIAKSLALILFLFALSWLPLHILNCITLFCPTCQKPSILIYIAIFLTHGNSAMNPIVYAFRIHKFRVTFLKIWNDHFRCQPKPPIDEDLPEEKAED

[3] = test system: HeL023 cells; assay: Flow cytometry analysis of G2/M accumulation and sub-G1 apoptosis, HeL023; assay type: cell-based, human; details: vindesine with MRE3008F20 10 μM
Procedure: (§1) A375 and NCTC2544 adherent cells were trypsinized, mixed with floating cells, washed with PBS and permeabilised in 70% (vol/vol) ethanol/PBS solution at 4° C. for at least 24 hours. Jurkat, HeL023 and PBMC cells were centrifuged for 10 minutes at 1000×g. The cell pellet was then resuspended and permeabilised in 70% (vol/vol) ethanol/PBS solution at 4° C. for at least 24 hours. The cells were washed with PBS and the DNA was stained with a PBS solution, containing 20 μg/ml of propidium iodide and 100 μg/ml of RNAse, at room temperature for 30 minutes. Cells were analysed by FACScan (Becton-Dickinson) and the content of DNA was evaluated by the Cell-LISYS program (Becton-Dickinson). Cell distribution among cell cycle phases and apoptotic cells was evaluated as previously described (Secchiero et al., 2001). Briefly, the cell cycle distribution is shown as the percentage of cells containing 2n (G1 phase), 4n (G2 and M phases), 4n>x>2n. DNA amount (S phase) judged by propidium iodide staining. The apoptotic population is the percentage of cells with DNA content lower than 2n.
(§2) To verify the role of A3 receptor antagonists on paclitaxel and vindesine mediated alteration of cell proliferation and apoptosis, testing was performed with additional cell lines. […] Experimental conditions are similar to those for the A375 cell testing.
(§3) EC50 values were obtained by analysing G2/M accumulation dose response curve. ECMAXvalues were obtained by analysing sub-G1 accumulation dose response curve. Paclitaxel values have units of ng/ml. Vindesine values have units of nM. nd: not done.

[4] = test system: NCTC2544 cells; assay: Flow cytometry analysis of G2/M accumulation and sub-G1 apoptosis, NCTC 2544; assay type: cell-based, human; details: for ECMAX (sub-G1 accumulation): NCTC 2544
Procedure: as §1, §2, §3

[5] = test system: A375 cells; assay: Flow cytometry analysis of G2/M accumulation and sub-G1 apoptosis, A375; assay type: cell-based, human
Procedure: as §1
Cell proliferation and apoptosis are quantified by flow cytometer analysis after propidium-iodide (PI) DNA staining. At 24 hours post-exposure, paclitaxel and vindesine induced a dose dependent cell accumulation into G2/M cell cycle phases and a parallel decrease of the G1 population.
as §3

[6] = test system: PBMC blasts; assay: Flow cytometry analysis of G2/M accumulation, PBMC; assay type: cell-based; details: Homo sapiens, vindesine with MRE3008F20 10 μM
[7] = test system: Jurkat cells; assay: Flow cytometry analysis of G2/M accumulation and sub-G1 apoptosis, Jurkat; assay type: cell-based, human; details: Homo sapiens, vindesine with MRE3008F20 10 μM
Procedure: as §1, §2, §3

Chain of rA2A adenosine receptor (P30543 whole entry): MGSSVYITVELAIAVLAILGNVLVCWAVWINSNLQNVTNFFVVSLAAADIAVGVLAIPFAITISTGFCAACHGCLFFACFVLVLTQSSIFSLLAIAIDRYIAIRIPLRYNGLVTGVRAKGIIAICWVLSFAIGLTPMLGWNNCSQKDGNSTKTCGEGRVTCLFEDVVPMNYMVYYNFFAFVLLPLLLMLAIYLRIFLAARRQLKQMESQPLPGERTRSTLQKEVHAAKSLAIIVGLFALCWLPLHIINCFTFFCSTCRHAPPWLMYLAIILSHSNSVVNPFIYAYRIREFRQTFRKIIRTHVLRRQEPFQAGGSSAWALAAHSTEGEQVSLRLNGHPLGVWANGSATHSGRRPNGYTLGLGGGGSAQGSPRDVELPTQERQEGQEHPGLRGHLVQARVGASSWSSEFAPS

EC50 ([3]; Homo sapiens) [nM] | EC50 ([4]; Homo sapiens, NCTC-2544, NCTC 2544, vindesine with MRE3008F20 10 μM) [nM] | EC50 ([5]; Homo sapiens, A-375) [nM] | EC50 [7] [nM] | Compound | Ki [1] [nM] | Ki [2] [nM] | ECMAX (sub-G1 accumulation) [3] [nM] | ECMAX (sub-G1 accumulation) ([4]; vindesine with MRE3008F20 10 μM) [nM] | ECMAX (sub-G1 accumulation) ([4]; vindesine, DMSO (no antagonist)) [nM] | ECMAX, concentration exerting the maximal apoptosis (sub-G1) ([5]; A375, vindesine with MRE3008F20 10 μM) [nM] | EC50 [6] [nM]
 |  |  |  | CN(C)c1ccc(NC(=O)Nc2nc3nn(C)cc3c3nc(-c4ccco4)nn23)cc1 [IL-11, N-1-(4-dimethylamino-phenyl)-N′-5-[8-methyl-2-(2-furyl)-pyrazolo[4,3-e]1,2,4-triazolo[1,5-c]pyrimidine]-urea] | > 10000 | > 10000 |  |  |  |  | 
0.71 ± 0.08 | 0.51 ± 0.06 | 0.48 ± 0.05 | 0.37 ± 0.04 | CC[C@]1(O)C[C@@H]2CN(CCc3c([nH]c4ccccc34)[C@@](C(=O)OC)(c3cc4c(cc3OC)N(C)[C@H]3[C@@](O)(C(N)=O)[C@H](O)[C@]5(CC)C=CCN6CC[C@]43[C@@H]65)C2)C1 [vindesine] |  |  | 1.05 ± 0.09 | 1.34 ± 0.15 | 2.50 ± 0.27 | 1.66 ± 0.20 | 0.86 ± 0.09
